Laboratory results reported in patent publication US20120283096A1, “AGENT FOR IMPROVING PLANT GROWTH, SEEDS, AND METHOD FOR IMPROVING PLANT GROWTH” (Incorporated Administrative Agency National Agricu lture …, priority 2010, published 2012).
Entries after “also recorded” stand apart in the source; their conditions may differ. Where two headings read alike, the source gives them in different places.

Columns and labels:
[1] = tested on: paddy seeds; assay: Possibility of growth of paddy seeds in tank farming without soil (Example 3); settings: in vivo
Protocol: The decay-inhibiting effect of molybdenum-containing substances in tank farming without soil was examined.
The possibility of growth and the inhibition of decay were determined in the same manner as above.

[2] = tested on: sulfide ion generation; assay: Inhibition of sulfide ion generation, paddy seeds covered with slightly-soluble substances (Example 2-3, FIG. 9); settings: approximately 0.1 mmol/g (per dry seeds) in terms of molybdenum or tungsten
Description: The water on slightly germinated seeds was lightly wiped off, and immediately after that, the seeds were put with (lightly covered with) various amounts of the slightly-soluble substances shown in Table 1. […] The number of days for which sulfide ion generation was inhibited and the proportion of seedling establishment were examined.

[3] = tested on: soybean; assay: Seedling establishment of soybean seeds submerged for two days (Example 6a-1, FIG. 20e); assay type: in vivo; settings: 0.01 mmol to 0.5 mmol molybdenum per gram of dry seed, 25° C., versus untreated seeds
Protocol: Soil was prepared in the same manner as in Example 6-1. Next, soybean seeds (branded as Fukuyutaka) not subjected to treatment such as soaking in advance were soaked for one minute in a tenfold diluted solution of a commercially available laundry starch (manufactured by Rocket Soap Co., Ltd.; My Laundry Starch) containing approximately a little less than 10% by weight of polyvinyl alcohol. Then, the seeds were spin-dried for thirty seconds in a commercially available washing machine for removal of the extra water. […] These seeds were buried so that the upper edge of each seed was at the same height as the soil surface. In an artificially-lit (amount of light 0.4 mmol/m^2/s, lit for twelve hours per day) room at 25° C., water was added immediately after seeding so that the surface water was 15 mm high. After two days, the surface water was sucked up with a pipette for removal. Six containers were allotted for each condition, and the proportion of seedling establishment (proportion of individual plants that survived) was measured two weeks after seeding. It should be noted that in FIG. 20e, the horizontal axis represents the number of moles (mmol) of molybdenum that adhered per gram of dry seed. In FIG. 20e, the dots correspond to the numbers of moles of 0 (UNTREATED), 0.01, 0.02, 0.05, 0.1, 0.2, and 0.5 mmol, starting from the left. […]

[4] = tested on: barley; assay: Seedling establishment of barley seeds in humid soil (Example 6-1, FIG. 20a); assay type: in vivo; settings: 0.01 mmol to 0.5 mmol molybdenum per gram of dry seed, 20° C., after two weeks
Protocol: (§1) As in Example 4-1, ammonium sulfate in an equivalent amount of 10 g/m^2 in terms of nitrogen and potassium chloride equivalent to 5 g/m^2 of potassium as potassium oxide were added as a solution to paddy humid soil in terms of 100 kg/m^2 of dry soil with a soil-to-liquid ratio of 0.7. The soil was placed into each container (in the shape of a cylinder approximately 7 cm in diameter) in an amount equivalent to 100 g of dry soil. The soil surface was flattened by giving it a slight press with a flat plate. Then, the soil was left at rest for one day at 4° C. […] The seeds were then half-buried in the soil. After that, at a constant temperature of 20° C., the water level was kept by adding water to such an extent that the seeds were slightly covered with water. Six containers were allotted for each condition, and the proportion of seedling establishment (proportion of individual plants that survived) was measured after two weeks. It should be noted that in each of FIGS. 20a and 20b, the horizontal axis represents the number of moles (mmol) of molybdenum that adhered per gram of dry seed. In each of FIGS. 20a and 20b, the dots correspond to the numbers of moles of 0, 0.01, 0.02, 0.05, 0.1, 0.2, and 0.5 mmol, starting from the left. […]

[5] = tested on: paddy rice; assay: Seedling establishment of coated paddy seeds planted in a paddy field (Example 4-5, FIG. 22); assay type: in vivo; settings: dry seeds coated with clay plus 0.1 mmol/g molybdenum; kept submerged, about one month after seeding; versus WITHOUT MATERIAL and oxygen generating agent (Cal); trihydrate
Protocol: Dry paddy seeds (branded as Hinohikari) were prepared.
Separately, dry seeds (WITHOUT MATERIAL) coated solely with clay containing no molybdenum were also prepared. Furthermore, dry seeds (Cal) coated with an oxygen generating agent (Calper Powder 16, Hodogaya UPL Co., Ltd.) the same weight per dry seeds were also prepared. Calper Powder 16 is an oxygen generating agent composed mainly of calcium peroxide.
These dry seeds were planted in puddled soil in a paddy field in Chikugo City, Fukuoka Prefecture, by using a simultaneous puddling and planting point sowing machine. By preparing the seeds as described above and planting them by using a point sowing machine, the amount of seeding per unit area of the paddy field can be substantially uniformed. It should be noted that prior to soil puddling, 4 g/m^2 of ammonium sulfate as nitrogen and potassium sulfate containing potassium equivalent to 8 g/m^2 as potassium oxide had been applied to the paddy field. After seeding, the seeds were kept submerged without draining the water.

[6] = tested on: wheat; assay: Seedling establishment of wheat seeds in humid soil (Example 6-1, FIG. 20b); assay type: in vivo; settings: 0.01 mmol to 0.5 mmol molybdenum per gram of dry seed, 20° C., after two weeks
Protocol: as §1

[7] = in water, powder, trihydrate, cited from earlier work

Possibility of growth, Amount of molybdenum or tungsten added to seed [1]: > 1 mmol/g
Substance: Triammonium 12-moblydo(VI)phosphate trihydrate [Ammonium molybdophosphate]
number of days for which sulfide ion generation was inhibited [2]: fourteen
proportion of seedling establishment [3]: improvements in proportion of seedling establishment
proportion of seedling establishment [4]: improvements in proportion of seedling establishment
seedling establishment [5]: obvious improvements in seedling establishment; also recorded: most remarkable improving effect on seedling establishment
proportion of seedling establishment [6]: improvements in proportion of seedling establishment
Water solubility ([7]; listed as ammonium molybdophosphate): slightly soluble
Water solubility [7]: Slightly soluble (has a percentage of solubility of 10% by weight or lower with respect to water)
